Measured values reported in EP0036652A2, “Cephalosporin derivatives, process for their preparation, corresponding compositions, their use in the treatment of diseases and intermediates” (F. HOFFMANN-LA ROCHE & CO. Aktiengesellschaft, priority 1980, dated 1981).
Values after ≈ are worked out from the molar mass of the structure shown.

How the values were obtained:
[1] = tested on: Haemophilus influenzae; assay: In vitro activity: minimum inhibitory concentration; assay type: cell-based; conditions: read-out: Mindesthemmkonzentration
Excerpt: (§1) Zum Nachweis der antimikrobiellen Wirksamkeit der erwähnten Produkte wurden folgende repräsentative Vertreter getestet: • Produkt A: (6R,7R)-7-/2-(2-Amino-4-thiazolyl)-2-[(Z)-methoxyimino]acetamido/-3-/[(2,5-dihydro-6- methoxy-2-methyl-5-oxo-as-triazin-3-yl)-; thio]methyl/-8-oxo-5-thia-1-azabicyclo-[4.2.0]oct-2-en-2-carbonsäure-Natriumsalz • Produkt B: (6R,7R)-7-/2-(2-Amino-4-thiazolyl)-2-[(Z)-methoxyimino]acetamido/-3-/[(3-carboxy-1-methyl-1H-1,2,4-triazol-5-yl)thio]methyl/-8-oxo-5-thia-1-azabicyclo[4.2.0]oct-2-en-2-carbonsäure-Dinatriumsalz • Produkt C: (6R,7R)-7-[2-(2-Amino-4-thiazolyl)-2-((Z)-methoxyimino)acetamido]-3-[[[2,5-dihydro-2-methyl-5-oxo-6-[(pivaloyloxy)methoxy]-as- triazin-3-yl]thio]methyl]-[…]-1-azabicyclo[4.2.0]oct-2-en-2-carbonsäure-Natrium-. salz.
(§2) Aktivität in vitro: Mindesthemmkonzentration (µg/ml)

[2] = tested on: Enterobacter cloacae; assay: as above; assay type: cell-based; conditions: β-lactamase-producing strain, read-out: Mindesthemmkonzentration
Excerpt: as §1, §2

[3] = tested on: Proteus vulgaris; assay: as above; assay type: cell-based; conditions: β-lactamase-producing strain, read-out: Mindesthemmkonzentration
Excerpt: as §1, §2

[4] = tested on: Proteus mirabilis; assay: as above; assay type: cell-based; conditions: β-lactamase-producing strain, read-out: Mindesthemmkonzentration
Excerpt: as §1, §2

[5] = tested on: Escherichia coli; assay: as above; assay type: cell-based; conditions: β-lactamase-producing strain, read-out: Mindesthemmkonzentration
Excerpt: as §1, §2

[6] = tested on: Serratia marcescens; assay: as above; assay type: cell-based; conditions: β-lactamase-producing strain, read-out: Mindesthemmkonzentration
Excerpt: as §1, §2

[7] = tested on: Pseudomonas aeruginosa Stamm 2; assay: as above; assay type: cell-based; conditions: STAMM2; Pseudomonas aeruginosa Stamm 2, β-lactamase-producing strain; read-out: Mindesthemmkonzentration
Excerpt: as §1, §2

[8] = tested on: Neisseria gonorrhoeae; assay: as above; assay type: cell-based; conditions: read-out: Mindesthemmkonzentration
Excerpt: as §1, §2

[9] = tested on: Staphylococcus aureus; assay: as above; assay type: cell-based; conditions: read-out: Mindesthemmkonzentration
Excerpt: as §1, §2

[10] = tested on: Pseudomonas aeruginosa Stamm 1; assay: as above; assay type: cell-based; conditions: STAMM1; Pseudomonas aeruginosa Stamm 1, β-lactamase-producing strain; read-out: Mindesthemmkonzentration
Excerpt: as §1, §2

[11] = Toxicity (LD100); assay type: in vivo
[12] = Half-life in the rat; set-up: species or system Ratte; conditions: in vivo, 20 mg/kg, after administration of 20 mg substance per kg body weight, read-out: Halbwertzeit
Excerpt: Verbindungen der Formel I, worin X die Gruppe (b) darstellt, sowie die entsprechenden Ester, Salze und Hydrate zeichnen sich durch eine lange Halbwertzeit aus, d.h. sie bleiben lange im Organismus und können dementsprechend effektiver ihre keimtötende Funktion ausüben. So zeigt z.B. das Dinatriumsalz von (6R,7R)-7-/-2-(2-Amino-4-thiazolyl)-2-[(Z)-me- thoxyimino]acetamido/-3-/[(3-carboxy-1-methyl-1H-1,2,4-triazol-5-yl)thio]methyl/-8-oxo-5-thia-1-azabieyclo[4.2.0]-oct-2-en-2-carbonsäure eine Halbwertzeit an der Ratte von 22 Min. nach Verabreichung von 20 mg Substanz pro kg Körpergewicht.

SMILES | MIC [1] | MIC [2] | MIC [3] | MIC [4] | MIC [5] | MIC [6] | MIC [7] | MIC [8] | MIC [9] | MIC [10] | LD100 ([11]; i.v.) | LD100 ([11]; p.o.) | LD100 ([11]; s.c.) | half-life [12]
CO/N=C(\C(=O)N[C@@H]1C(=O)N2C(C(=O)O)=C(CSc3nc(=O)c(OC)nn3C)CS[C@H]12)c1csc(N)n1 [Produkt A, (6R,7R)-7-/2-(2-Amino-4-thiazolyl)-2-[(Z)-methoxyimino]acetamido/-3-/[(2,5-dihydro-6-methoxy-2-methyl-5-oxo-as-triazin-3-yl)- ; thio]methyl/-8-oxo-5-thia-1-azabicyclo-[4.2.0]oct-2-en-2-carbonsäure-Natriumsalz] | 0.01 µg/mL (≈ 0.0176 µM) | 1.2 µg/mL (≈ 2.11 µM) | 0.02 µg/mL (≈ 0.0352 µM) | 0.04 µg/mL (≈ 0.0703 µM) | 0.04 µg/mL (≈ 0.0703 µM) | 0.16 µg/mL (≈ 0.281 µM) | 80 µg/mL (≈ 141 µM) | 0.01 µg/mL (≈ 0.0176 µM) | 2.5 µg/mL (≈ 4.4 µM) | 40 µg/mL (≈ 70.3 µM) | > 500 mg/kg | >5000 mg/kg | >4000 mg/kg | –
CO/N=C(\C(=O)N[C@@H]1C(=O)N2C(C(=O)O)=C(CSc3nc(C(=O)O)nn3C)CS[C@H]12)c1csc(N)n1 [Produkt B, (6R,7R)-7-/2-(2-Amino-4-thiazolyl)-2-[(Z)-methoxyimino]acetamido/-3-/[(3-carboxy-1-methyl-1H-1,2,4-triazol-5-yl)thio]methyl/-8-oxo-5-thia-1-azabicyclo[4.2.0]oct-2-en-2-carbonsäure-Dinatriumsalz] | 0.01 µg/mL (≈ 0.018 µM) | 10 µg/mL (≈ 18 µM) | 0.01 µg/mL (≈ 0.018 µM) | 0.01 µg/mL (≈ 0.018 µM) | 0.08 µg/mL (≈ 0.144 µM) | 0.16 µg/mL (≈ 0.289 µM) | 40 µg/mL (≈ 72.1 µM) | 0.0025 µg/mL (≈ 0.00451 µM) | 10 µg/mL (≈ 18 µM) | 40 µg/mL (≈ 72.1 µM) | – | >5000 mg/kg | – | 22 min
CO/N=C(\C(=O)N[C@@H]1C(=O)N2C(C(=O)O)=C(CSc3nc(=O)c(OCOC(=O)C(C)(C)C)nn3C)CS[C@H]12)c1csc(N)n1 [Produkt C, (6R,7R)-7-[2-(2-Amino-4-thiazolyl)-2-((Z)-methoxyimino)acetamido]-3-[[[2,5-dihydro-2-methyl-5-oxo-6-[(pivaloyloxy)methoxy]-as-triazin-3-yl]thio]methyl]-[…]-1-azabicyclo[4.2.0]oct-2-en-2-carbonsäure-Natrium-. salz] | 0.04 µg/mL (≈ 0.0598 µM) | 25 µg/mL (≈ 37.4 µM) | 0.2 µg/mL (≈ 0.299 µM) | 0.4 µg/mL (≈ 0.598 µM) | 0.1 µg/mL (≈ 0.15 µM) | 3.1 µg/mL (≈ 4.64 µM) | 50 µg/mL (≈ 74.8 µM) | – | 1.6 µg/mL (≈ 2.39 µM) | 50 µg/mL (≈ 74.8 µM) | >500 mg/kg | >5000 mg/kg | >4000 mg/kg | –
